Results published in US9334267B2, “RAF inhibitor compounds” (Deciphera Pharmaceuticals, LLC, priority 2012, dated 2016).

Key:
HT-29 cells = experiment: HT-29 cell proliferation assay (resazurin); type: cell-based; conditions: Homo sapiens, V600E mutation, read-out: Cell Proliferation Inhibition IC50, nM HT-29
Protocol: HT-29 cells (catalog #HTB-38) are obtained from the American Type Culture Collection (ATCC, Manassas, Va.). Briefly, cells are grown in McCoy's 5A supplemented with 10% characterized fetal bovine serum (Invitrogen, Carlsbad, Calif.), and 1% Penicillin/Streptomycin/L-Glutamine at 37 degrees Celsius, 5% CO2, and 95% humidity. Cells are allowed to expand until reaching 75-90% confluency at which point they are subcultured or harvested for assay use. A serial dilution of test compound is dispensed into a 384-well black clear bottom plate in triplicate. One thousand two-hundred fifty cells are added per well in 50 μL complete growth medium in the 384-well plate. Plates are incubated for 67 hours at 37 degrees Celsius, 5% CO2, and 95% humidity. At the end of the incubation period, 10 μL of a 440 μM solution of resazurin (Sigma, St. Louis, Mo.) in PBS is added to each well of the plate and plates are incubated for an additional 5 hours at 37 degrees Celsius, 5% CO2, and 95% humidity. Plates are read on a Synergy2 reader (Biotek, Winooski, Vt.) using an excitation of 540 nm and an emission of 600 nm. Data is analyzed using Prism software (Graphpad, San Diego, Calif.) to calculate IC50 values.
The A375, HT-29, and Colo-205 cells (ATCC) harbor a V600E mutation.

HCT-116 cells = experiment: HCT-116 cell proliferation assay (resazurin); type: cell-based; conditions: Homo sapiens, K-Ras mutation B-Raf wild type, read-out: Cell Proliferation Inhibition IC50, nM HCT-116
human B-Raf V600E = target: T1, human B-Raf V600E (Homo sapiens, UniProt P15056, V600E); experiment: Enzymatic assay of B-Raf V600E kinase activity (Raf/MEK1 ATPase, coupled PK/LDH, A340); type: biochemical; conditions: read-out: Enzyme IC50, nM B-Raf V600E
T1 construct: B-RafV600E (residues 433-726 containing V600E mutation) containing an N-terminal purification tag is expressed and purified; made in house
T1 sequence (P15056 433-726 V600E): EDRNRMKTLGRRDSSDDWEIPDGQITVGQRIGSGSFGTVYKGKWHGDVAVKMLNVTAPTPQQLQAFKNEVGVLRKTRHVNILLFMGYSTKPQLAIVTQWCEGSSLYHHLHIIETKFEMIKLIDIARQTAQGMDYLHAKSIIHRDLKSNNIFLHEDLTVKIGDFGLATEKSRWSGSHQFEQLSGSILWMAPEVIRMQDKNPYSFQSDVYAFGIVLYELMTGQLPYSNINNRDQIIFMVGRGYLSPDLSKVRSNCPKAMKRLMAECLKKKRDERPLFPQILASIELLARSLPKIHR
Protocol: Test compounds are evaluated for their inhibitory activities against one or more of human wild type B-Raf, human wild type C-Raf, human B-Raf V600E, human B-Raf V600E+T529I or human B-Raf V600E+G468A. T529I is a threonine to isoleucine B-Raf gatekeeper mutation and G468A is a B-Raf secondary mutation at G1403C in exon 11. The enzymatic assays of B-Raf, C-Raf and B-Raf mutations evaluate a property of Raf and MEK1 complex, which in the presence of ATP, catalyzes an enhanced ATP hydrolysis (Rominger, et al, Arch. Biochem. Biophys. 2007, 464: 130-137; US Patent Publication No. 2006/0211073). The ADP formed is monitored by the well-known coupled PK/LDH (pyruvate kinase/lactate dehydrogenase) system in the form of NADH oxidation, which can be monitored and detected spectrophotometrically by absorbance at 340 nm (A340; for principal of the method see Schindler et al, Science, 2000, 289: 1938-1942). Raf activated MEK1 ATPase activity is a property shared by all forms of Raf proteins.
B-RafV600E (residues 433-726 containing V600E mutation) containing an N-terminal purification tag is expressed and purified essentially as described previously (Wan et al, Cell, 2004, 116, 855-867).
Test compounds are evaluated for their inhibitory activities against one or more of wild type B-Raf, wild type C-Raf, B-Raf V600E, B-Raf V600E+T529I and B-Raf V600E+G468A. T529I is a B-Raf gatekeeper mutation and G468A is a B-Raf secondary mutation. The enzymatic assays of B-Raf, C-Raf and B-Raf mutations evaluate a property of Raf and MEK1 complex, which in the presence of ATP, catalyzes an enhanced ATP hydrolysis (Rominger, et al, Arch. Biochem. Biophys. 2007, 464: 130-137). The ADP formed is monitored by the well-known coupled PK/LDH (pyruvate kinase/lactate dehydrogenase) system in the form of NADH oxidation, which can be monitored and detected by absorbance at 340 nm (A340; for principal of the method see Schindler et al, Science, 2000, 289: 1938-1942). Raf activated MEK1 ATPase activity is a property shared by all forms of Raf proteins. In the B-Raf wild type enzymatic assay, the reaction mixture contains 1.2 nM B-Raf, 30 nM MEK1, 1000 uM ATP, 3.5 units (per 100 ul) of PK, 5 units (per 100 ul) of LDH, 1 mM phosphoenol pyruvate (PEP), and 280 uM of NADH. In the C-Raf assay, the reaction mixture contains 0.6 nM C-Raf, 26 nM MEK1, 2000 uM ATP, and the same amount of PK, LDH, PEP and NADH as above. In the B-Raf V600E assay, the reaction mixture contains […] B-Raf V600E, 26 nM MEK1, 200 uM ATP and the same amount of PK, LDH, PEP and NADH as above. In the B-RafV600E+T529I assay, the reaction mixture contains 6.2 nM B-Raf V600E+T529I, 30 nM MEK1, 200 uM ATP and the same amount of PK, LDH, PEP and NADH as above. In the B-Raf V600E+G468A assay, the reaction mixture contains 3.5 nM B-Raf, 30 nM MEK1, 200 uM ATP and the same amount of PK, LDH, PEP and NADH as above. All assays are started by mixing the above mixture with test compound and monitoring at A340 continuously for approximately 5 hr. […] In the aforementioned assays, the enzyme constructs can be screened prior to or after cleavage of the N-terminal purification tag.

| Compound | IC50 (HT-29 cells) [nM] | IC50 (HCT-116 cells) [nM] | IC50 (human B-Raf V600E) [nM] |
| --- | --- | --- | --- |
| CNc1ncc2cc(-c3cc(NC(=O)NCCC(C)(C)C)c(F)cc3F)c(C)nc2n1 [Example 1, 1-(2,4-Difluoro-5-(7-methyl-2-(methylamino)pyrido[2,3-d]pyrimidin-6-yl)phenyl)-3-(3,3-dimethylbutyl)urea] | < 100 | 100 to 1000 | < 150 |
| CNc1ncc2cc(-c3ccc(F)c(NC(=O)NCCC(C)(C)C)c3)c(C)nc2n1 [Example 2, 1-(3,3-Dimethylbutyl)-3-(2-fluoro-5-(7-methyl-2-(methylamino)pyrido[2,3-d]pyrimidin-6-yl)phenyl)urea] | < 100 | 100 to 1000 | < 150 |
| CNc1ncc2cc(-c3cc(NC(=O)NCCC(C)(C)C#N)c(F)cc3C)c(C)nc2n1 [Example 3, 1-(3-Cyano-3-methylbutyl)-3-(2-fluoro-4-methyl-5-(7-methyl-2-(methylamino)pyrido[2,3-d]pyrimidin-6-yl)phenyl)urea] | < 100 | 100 to 1000 | < 150 |
| CNc1ncc2cc(-c3cc(NC(=O)NCCC(C)(C)F)c(F)cc3C)c(C)nc2n1 [Example 4, 1-(3-Fluoro-3-methylbutyl)-3-(2-fluoro-4-methyl-5-(7-methyl-2-(methylamino)pyrido[2,3-d]pyrimidin-6-yl)phenyl)urea] | < 100 | 100 to 1000 | < 150 |
| COCCNc1ncc2cc(-c3cc(NC(=O)NCCC(C)(C)C)c(F)cc3C)c(C)nc2n1 [Example 5, 1-(3,3-Dimethylbutyl)-3-(2-fluoro-5-(2-((2-methoxyethyl)amino)-7-methylpyrido[2,3-d]pyrimidin-6-yl)-4-methylphenyl)urea] | < 100 | 100 to 1000 | < 150 |
| CNc1ncc2cc(-c3cc(NC(=O)NC4CC(C)(C)C4)c(F)cc3C)c(C)nc2n1 [Example 6, 1-(3,3-Dimethylcyclobutyl)-3-(2-fluoro-4-methyl-5-(7-methyl-2-(methylamino)pyrido[2,3-d]pyrimidin-6-yl)phenyl)urea] | < 100 | 100 to 1000 | < 150 |
| CNc1ncc2cc(-c3cc(NC(=O)NC4CC(C)(C)C4)c(F)cc3F)c(C)nc2n1 [Example 7, 1-(2,4-Difluoro-5-(7-methyl-2-(methylamino)pyrido[2,3-d]pyrimidin-6-yl)phenyl)-3-(3,3-dimethylcyclobutyl)urea] | < 100 | 100 to 1000 | < 150 |
| CNc1ncc2cc(-c3cc(NC(=O)NCC(O)C(C)(C)C)c(F)cc3C)cnc2n1 (stereo not drawn) [Example 8, 1-[2-Fluoro-4-methyl-5-(2-methylaminopyrido[2,3-d]pyrimidin-6-yl)phenyl]-3-(2-hydroxy-3,3-dimethyl-butyl)urea] | 100 to 1000 | 1000 to 10000 | < 150 |
| CNc1ncc2cc(-c3cc(NC(=O)NCC4CC4(C)C)c(F)cc3C)cnc2n1 (stereo not drawn) [Example 9] | 100 to 1000 | 1000 to 10000 | < 150 |
| Cc1cc(F)c(NC(=O)NCC(O)C(C)(C)C)cc1-c1cc2cnc(N)nc2nc1C (stereo not drawn) [Example 10] | 100 to 1000 | 1000 to 10000 | < 150 |
| CNc1ncc2cc(-c3cc(NC(=O)NCC(O)C(C)(C)C)c(F)cc3F)c(C)nc2n1 (stereo not drawn) [Example 11, 1-[2,4-Difluoro-5-(7-methyl-2-methylamino-pyrido[2,3-d]pyrimidin-6-yl)phenyl]-3-(2-hydroxy-3,3-dimethyl-butyl)urea] | 100 to 1000 | 1000 to 10000 | < 150 |
| CNc1ncc2cc(-c3cc(NC(=O)NCCC(C)(C)C#N)c(F)cc3F)c(C)nc2n1 [Example 12, 1-(3-Cyano-3-methylbutyl)-3-(2,4-difluoro-5-(7-methyl-2-(methylamino)pyrido[2,3-d]pyrimidin-6-yl)phenyl)urea] | 100 to 1000 | 1000 to 10000 | < 150 |
| CNc1ncc2cc(-c3ccc(F)c(NC(=O)NCCC(C)(C)C#N)c3)c(C)nc2n1 [Example 13, 1-(3-Cyano-3-methylbutyl)-3-(2-fluoro-5-(7-methyl-2-(methylamino)pyrido[2,3-d]pyrimidin-6-yl)phenyl)urea] | 100 to 1000 | 1000 to 10000 | < 150 |
| CNc1ncc2cc(-c3cc(NC(=O)NCCC(C)(C)OC)c(F)cc3C)c(C)nc2n1 [Example 14, 1-(2-Fluoro-4-methyl-5-(7-methyl-2-(methylamino)pyrido[2,3-d]pyrimidin-6-yl)phenyl)-3-(3-methoxy-3-methylbutyl)urea] | < 100 | 100 to 1000 | < 150 |
| CNc1ncc2cc(-c3cc(NC(=O)NCC(O)C(C)(C)C)c(F)cc3C)c(C)nc2n1 (stereo not drawn) [Example 15, 1-[2-Fluoro-4-methyl-5-(7-methyl-2-methylamino-pyrido[2,3-d]pyrimidin-6-yl)phenyl]-3-(2-hydroxy-3,3-dimethyl-butyl)urea] | < 100 | 100 to 1000 | < 150 |
| Cc1cc(F)c(NC(=O)NCCC(C)(C)C)cc1-c1cc2cnc(NCCO)nc2nc1C [Example 16, 1-(3,3-Dimethylbutyl)-3-[2-fluoro-5-[2-(2-hydroxyethylamino)-7-methyl-pyrido[2,3-d]pyrimidin-6-yl]-4-methyl-phenyl]urea] | < 100 | 100 to 1000 | < 150 |
| Cc1cc(F)c(NC(=O)NCCC(C)(C)C)cc1-c1cc2cnc(NCCN(C)C)nc2nc1C [Example 17, 1-[5-[2-(2-Dimethylaminoethylamino)-7-methyl-pyrido[2,3-d]pyrimidin-6-yl]-2-fluoro-4-methyl-phenyl]-3-(3,3-dimethylbutyl)urea] | < 100 | 100 to 1000 | < 150 |
| CNc1ncc2cc(-c3cc(NC(=O)NC[C@H](O)C(C)(C)C)c(F)cc3C)cnc2n1 [Example 18, 1-[2-Fluoro-4-methyl-5-(2-methylaminopyrido[2,3-d]pyrimidin-6-yl)phenyl]-3-[(2R)-2-hydroxy-3,3-dimethyl-butyl]urea] | < 100 | 100 to 1000 | < 150 |
| CNc1ncc2cc(-c3cc(NC(=O)NC[C@@H](O)C(C)(C)C)c(F)cc3C)cnc2n1 [Example 19, 1-[2-fluoro-4-methyl-5-(2-methylaminopyrido[2,3-d]pyrimidin-6-yl)phenyl]-3-[(2S)-2-hydroxy-3,3-dimethyl-butyl]urea] | 100 to 1000 | 1000 to 10000 | < 150 |
